Source: PMC6100250, “Efficient Intracellular Delivery of Cell-Impermeable Cargo Molecules by Peptides Containing Tryptophan and Histidine” (Molecules : A Journal of Synthetic Chemistry and Natural …, 2018)
Non-standard residues stand in square brackets, D forms with d. Residues, ends and D or L forms follow the SMILES beside them. *: point of attachment. 5FAM = O=C1OC2(c3ccc(O)cc3Oc3cc(O)ccc32)c2ccc(C(=O)*)cc21; pY = N[C@@H](Cc1ccc(OP(=O)(O)O)cc1)C(=O)O

Assays:
SK-OV-3 cells [1] = assay: Live cell fluorescence microscopy of F’-GpYEEI uptake; type: cell-based, human; conditions: F’-GpYEEI 5 µM alone, no carrier peptide, 3 h, FITC channel
Method: Fluorescence microscopy was used to confirm the intracellular uptake of F’-GpYEEI in the presence of cyclic [WH]5. The fluorescence intensity of F’-GpYEEI (5 µM) was visualized in a physical mixture with cyclic [WH]5 (50 µM) compared to that of F’-GpYEEI alone in SK-OV-3 cells. […] F’-GpYEEI alone was used as a control in this assay. Live cell imaging was carried using glass-bottom plates.
SK-OV-3 cells were grown with antibiotic-free DMEM 24 h prior to the experiment in a glass bottom petri-dish (60 mm × 15 mm) of 5000 cells per mL of media. The F’-GpYEEI was incubated with cyclic [WH]5 for 30 min at room temperature. Then, the cells were treated with a mixture of F’-GpYEEI (5 μM) and cyclic [WH]5 (50 μM) in Opti-MEM for 3 h at 37 °C. After 3 h, the medium containing the treatments was removed, and PBS was added to cells. The cells were washed with PBS for two times. Images were acquired with BZ-X710 fluorescence microscope (Keyence, Osaka, Japan) at 100× magnification for brightfield and FITC channels. Images were merged and processed using Image J software to visualize the fluorescence uptake by cells.

SK-OV-3 cells [2] = assay: MTS cell viability (cytotoxicity) assay; conditions: peptide 10, 50 and 100 µM (up to 100 µM), 3 h incubation, 37 °C, read at 490 nm, triplicate
Method: (§1) To determine concentration of peptide to be used in in vitro assays, the cytotoxicity of peptides was evaluated in two cell lines, human ovarian (SK-OV-3) and leukemia (CCRF-CEM) cancer cells.
(§2) Human leukemia CCRF-CEM (ATCC # CCL-119) and ovarian carcinoma SK-OV-3 (ATCC # HTB-77) cell lines were purchased from the American Type Culture Collection. Cells were grown on 75 cm^2 cell culture flasks. The Roswell Park Memorial Institute (RPMI)-1640 medium was used for leukemia cells and McCoy’s 5A medium was used for SK-OV-3 cells. The medium was supplemented with 10% fetal bovine serum (FBS), 1% penicillin−streptomycin solution (10,000 units of penicillin, and 10 mg of streptomycin in 0.9% NaCl) in a humidified atmosphere of 5% CO2 at 37 °C. All bioassays were performed in triplicate.
(§3) The cytotoxicity assay was performed via an MTS proliferation assay in CCRF-CEM and SK-OV-3 cells. CCRF-CEM (40,000 cells) and SK-OV-3 (5000 cells) were incubated with 100 µL of complete media. The cells were seeded overnight in 96 well plates. […] The fluorescence intensity of the formazan product was measured at 490 nm using a Spectra Max M2 microplate spectrophotometer. The percentage of cell survival was calculated as [(OD value of cells treated with the test mixture of compounds) − (OD value of culture medium)]/[(OD value of control cells) − (OD value of culture medium)] × 100%.

CCRF-CEM cells = assay: MTS cell viability (cytotoxicity) assay; conditions: peptide 10, 50 and 100 µM (up to 100 µM), 3 h incubation, 37 °C, read at 490 nm, triplicate
Method: as §1, §2, §3

Compound | cellular uptake of F’-GpYEEI alone (fluorescence microscopy) (SK-OV-3 cells [1]) | cytotoxicity (cell survival, MTS) (SK-OV-3 cells [2]) | cytotoxicity (cell survival, MTS) (CCRF-CEM cells)
CC[C@H](C)[C@H](NC(=O)[C@H](CCC(=O)O)NC(=O)[C@H](CCC(=O)O)NC(=O)[C@H](Cc1ccc(OP(=O)(O)O)cc1)NC(=O)CNC(=O)c1ccc2c(c1)C(=O)OC21c2ccc(O)cc2Oc2cc(O)ccc21)C(=O)O [F’-GpYEEI] (5FAM-G[pY]EEI-OH) | No green fluorescence was observed | – | –
O=C1N[C@@H](Cc2c[nH]c3ccccc23)C(=O)N[C@@H](Cc2c[nH]cn2)C(=O)N[C@@H](Cc2c[nH]c3ccccc23)C(=O)N[C@@H](Cc2c[nH]cn2)C(=O)N[C@@H](Cc2c[nH]c3ccccc23)C(=O)N[C@@H](Cc2c[nH]cn2)C(=O)N[C@@H](Cc2c[nH]c3ccccc23)C(=O)N[C@@H](Cc2c[nH]cn2)C(=O)N[C@@H](Cc2c[nH]c3ccccc23)C(=O)N[C@H]1Cc1c[nH]cn1 [cyclic [WH]5] (cyclo(HWHWHWHWHW)) | – | did not show significant toxicity | did not show significant toxicity
